Consider 25 compounds from patent US20200392150A1, “Diaryl-B-Lactam Compound and Preparation Method and Pharmaceutical Use Thereof” (Fudan University, priority 2016, published 2020).

Experiment in all cases: In vitro cell growth inhibition assay (MTT)
Type in all cases: cell-based, human

For test [1], the system named is A2780. The conditions noted are these: A2780 human ovarian cancer cell line, 48 h, MTT; read-out: IC50 A2780. How it is done:
(§1) 5000 tumor cells per well were seeded into 96-well plate and allowed to adhere overnight. Cells were treated with various concentrations of tested compounds or DMSO (0.2%, as negative control) for 48 h. Then, the medium along with tested compounds or DMSO was discarded and […] per well MTT containing medium (0.5 mg/mL) was added. After incubation at 37° C. for 4 h, the MTT-containing medium was replaced by DMSO (150 μL per well) to dissolve the formazan crystals. Absorbance of the resulting solution was measured by microplate reader (Biotech ELx800) at 540 nm wavelength. Growth inhibition rates were calculated with the absorbance. Half maximal inhibitory concentration (IC50) of each compound was calculated using GraphPad Prism, version 6.0.

Test [2] has as its system Hela. To be noted: Hela human cervical cancer cell line, 48 h, MTT; read-out: IC50 Hela. The procedure: as §1
The subject of test [3] is MDA-MB-231. The conditions noted are these: MDA-MB-231 human breast cancer cell line, 48 h, MTT; read-out: IC50 MDA-MB-231. How it is done:
as §1

For test [4], the system named is SKOV3. To be noted: SK-OV-3; SKOV-3 human ovarian cancer cell line, 48 h, MTT; read-out: IC50 SKOV3. How it is done: as §1

In the case of `C=C1C(=O)N(c2cc(OC)c(OC)c(OC)c2)[C@H]1c1ccc(OC)c(OCCO)c1` [Compound 8, (S)-4-(3-(2-hydroxyethoxy)-4-methoxyphenyl)-3-methylene-1-(3,4,5-trimethoxyphenyl)azetidin-2-one], the IC50 in test [1] came out at 0.344 µM; in test [2], 0.925 µM; in test [3] it was 0.845 µM; in test [4] it was 0.832 µM.
In the same order, the values of `C=C1C(=O)N(c2cc(OC)c(OC)c(OC)c2)[C@H]1c1ccc(OC)c(OCCCO)c1` [Compound 9, (S)-4-(3-(3-hydroxypropoxy)-4-methoxyphenyl)-3-methylene-1-(3,4,5-trimethoxyphenyl)azetidin-2-one] are 1.54 µM, 7.47 µM, 1.92 µM and 3.03 µM.
The matching figures for `C=C1C(=O)N(c2cc(OC)c(OC)c(OC)c2)[C@H]1c1ccc(OC)c(OCC(=O)OCC)c1` [Compound 12, (5)-ethyl 2-(2-methoxy-5-(3-methylene-4-oxo-1-(3,4,5-trimethoxyphenyl)azetidin-2-yl)phenoxy)acetate]: above 20 µM, above 20 µM, above 20 µM and above 20 µM.
The matching figures for `C=C1C(=O)N(c2cc(OC)c(OC)c(OC)c2)[C@H]1c1ccc(OC)c(OCC(=O)OC(C)(C)C)c1` [Compound 13, (S)-tert-butyl 2-(2-methoxy-5-(3-methylene-4-oxo-1-(3,4,5-trimethoxyphenyl)azetidin-2-yl)phenoxy)acetate]: above 10 µM, above 10 µM, above 10 µM and above 10 µM.
Turning to `C/C=C1\C(=O)N(c2cc(OC)c(OC)c(OC)c2)[C@H]1c1ccc(OC)c(O)c1` [Compound 55, (S,Z)-3-ethylidene-4-(3-hydroxy-4-methoxyphenyl)-1-(3,4,5-trimethoxyphenyl)azetidin-2-one], the results for the half-inhibitory concentration (IC50) in test [2] and in test [4] were 2.64 µM and 2.76 µM, respectively.
The matching figures for `C/C=C1/C(=O)N(c2cc(OC)c(OC)c(OC)c2)[C@H]1c1ccc(OC)c(O)c1` [Compound 56, (S,E)-3-ethylidene-4-(3-hydroxy-4-methoxyphenyl)-1-(3,4,5-trimethoxyphenyl)azetidin-2-one]: 2.92 µM and 2.83 µM.
The matching figures for `COc1ccc([C@H]2[C@@H](Cc3ccc(O)cc3)C(=O)N2c2cc(OC)c(OC)c(OC)c2)cc1O` [Compound 60, (3R,4R)-4-(3-hydroxy-4-methoxyphenyl)-3-(4-hydroxybenzyl)-1-(3,4,5-trimethoxyphenyl)azetidin-2-one]: 7.26 µM and 2.85 µM.
For the compound `COc1ccc([C@H]2[C@@H](CO)C(=O)N2c2cc(OC)c(OC)c(OC)c2)cc1O` [Compound 68, (3S,4R)-4-(3-hydroxy-4-methoxyphenyl)-3-(hydroxymethyl)-1-(3,4,5-trimethoxyphenyl)azetidin-2-one], the IC50 is 0.22 µM in test [1], 0.358 µM in test [2] and 0.182 µM in test [3].
With `COc1ccc([C@H]2[C@@H](O)C(=O)N2c2cc(OC)c(OC)c(OC)c2)cc1OCc1ccccc1` [Compound 72, (3R,4S)-4-(3-(benzyloxy)-4-methoxyphenyl)-3-hydroxy-1-(3,4,5-trimethoxyphenyl)azetidin-2-one], the IC50 in test [2] and in test [4] was above 10 µM in each case.
On to `COc1ccc([C@H]2[C@@H](OS(C)(=O)=O)C(=O)N2c2cc(OC)c(OC)c(OC)c2)cc1OCc1ccccc1` [Compound 73, (3R,4S)-2-(3-(benzyloxy)-4-methoxyphenyl)-4-oxo-1-(3,4,5-trimethoxyphenyl)azetidin-3-yl methanesulfonate], for which the IC50 in test [2] and in test [4] was above 10 µM throughout.
For the compound `COc1ccc([C@H]2[C@@H](OS(C)(=O)=O)C(=O)N2c2cc(OC)c(OC)c(OC)c2)cc1O` [Compound 74, (3R,4S)-2-(3-(hydroxy)-4-methoxyphenyl)-4-oxo-1-(3,4,5-trimethoxyphenyl)azetidin-3-yl methanesulfonate], the IC50 in test [2] was 0.754 µM; in test [4] it was 0.98 µM.
For the compound `COc1ccc([C@H]2[C@H](N=[N+]=[N-])C(=O)N2c2cc(OC)c(OC)c(OC)c2)cc1OCc1ccccc1` [Compound 75, (3S,4S)-3-azido-4-(3-(benzyloxy)-4-methoxyphenyl)-1-(3,4,5-trimethoxyphenyl)azetidin-2-one], the 50% inhibitory concentration (IC50) in test [2] and in test [4] was above 10 µM in each case.
For `COc1ccc([C@H]2[C@H](N)C(=O)N2c2cc(OC)c(OC)c(OC)c2)cc1OCc1ccccc1` [Compound 76, (3S,4S)-3-amino-4-(3-(benzyloxy)-4-methoxyphenyl)-1-(3,4,5-trimethoxyphenyl)azetidin-2-one], the half-inhibitory concentration (IC50) in test [2] worked out at 7.46 µM; in test [4], 8.54 µM.
The matching figures for `COc1ccc([C@@H]2N(c3cc(OC)c(OC)c(OC)c3)C(=O)[C@]2(O)CO)cc1OC(C)=O` [Compound 82, 5-((2S,3R)-3-hydroxy-3-(hydroxymethyl)-4-oxo-1-(3,4,5-trimethoxyphenyl)azetidin-2-yl)-2-methoxyphenyl acetate]: 0.863 µM and 0.625 µM.
The matching figures for `COc1ccc([C@@H]2N(c3cc(OC)c(OC)c(OC)c3)C(=O)[C@@]2(COC(C)=O)OC(C)=O)cc1OC(C)=O` [Compound 83, ((2S,3R)-3-acetoxy-2-(3-acetoxy-4-methoxyphenyl)-4-oxo-1-(3,4,5-trimethoxyphenyl)azetidin-3-yl)methyl acetate]: above 10 µM and above 10 µM.
Turning to `COc1ccc([C@@H]2N(c3cc(OC)c(OC)c(OC)c3)C(=O)[C@]2(O)CO)cc1OCc1ccccc1` [Compound 84, (3R,4S)-4-(3-(benzyloxy)-4-methoxyphenyl)-3-hydroxy-3-(hydroxymethyl)-1-(3,4,5-trimethoxyphenyl)azetidin-2-one], the IC50 in test [2] is above 10 µM; in test [4] it was 2.32 µM.
As for `C=CC(=O)OC[C@@]1(OC(=O)C=C)C(=O)N(c2cc(OC)c(OC)c(OC)c2)[C@H]1c1ccc(OC)c(OC(=O)C=C)c1` [Compound 89, ((2S,3R)-3-(acryloyloxy)-2-(3-(acryloyloxy)-4-methoxyphenyl)-4-oxo-1-(3,4,5-trimethoxyphenyl)azetidin-3-yl)methyl acrylate], the figures for the IC50 in test [2] and in test [4] were 2.45 µM and 2.23 µM, respectively.
In the same order, the values of `C=CC(=O)N[C@@H]1C(=O)N(c2cc(OC)c(OC)c(OC)c2)[C@H]1c1ccc(OC)c(OC(=O)C=C)c1` [Compound 90, 5-((2S,3S)-3-acrylamido-4-oxo-1-(3,4,5-trimethoxyphenyl)azetidin-2-yl)-2-methoxyphenyl acrylate] are 0.025 µM and 0.016 µM.
As to `C=C1CN(c2cc(OC)c(OC)c(OC)c2)[C@H]1c1ccc(OC)c(O)c1` [Compound 91, (S)-2-methoxy-5-(3-methylene-1-(3,4,5-trimethoxyphenyl)azetidin-2-yl)phenol], the values for the IC50 in test [2] and in test [4] were 0.252 µM and 0.246 µM, respectively.
On to `COc1ccc([C@@H]2N(c3cc(OC)c(OC)c(OC)c3)C(=O)[C@]23COC(=O)O3)cc1OC(C)=O` [Compound 92, 5-((1S,4R)-3,6-dioxo-2-(3,4,5-trimethoxyphenyl)-5,7-dioxa-2-azaspiro[3.4]octan-1-yl)-2-methoxyphenyl acetate], for which the IC50 in test [2] was 1.57 µM; in test [4] it was 1.28 µM.
`COc1ccc([C@H]2C(=O)C(=O)N2c2cc(OC)c(OC)c(OC)c2)cc1OC(C)=O` [Compound 93, (S)-5-(3,4-dioxo-1-(3,4,5-trimethoxyphenyl)azetidin-2-yl)-2-methoxyphenyl acetate]: the IC50 in test [2] and in test [4] was above 10 µM each time.
As for `COc1ccc([C@@H]2N(c3cc(OC)c(OC)c(OC)c3)C(=O)[C@]2(C)O)cc1OC(C)=O` [Compound 94, 5-((2S,3R)-3-hydroxy-3-methyl-4-oxo-1-(3,4,5-trimethoxyphenyl)azetidin-2-yl)-2-methoxyphenyl acetate], the half-inhibitory concentration (IC50) came to 0.094 µM in test [2] and 0.147 µM in test [4].
In the same order, the values of `COc1ccc([C@@H]2N(c3cc(OC)c(OC)c(OC)c3)C(=O)[C@]2(C)O)cc1O` [Compound 95, (3R,4S)-3-hydroxy-4-(3-hydroxy-4-methoxyphenyl)-3-methyl-1-(3,4,5-trimethoxyphenyl)azetidin-2-one] are 0.213 µM and 0.103 µM.
For the compound `COc1ccc([C@@H]2[C@@H](CO)C(=O)N2c2cc(OC)c(OC)c(OC)c2)cc1O` [Compound 99, (3S,4S)-4-(3-hydroxy-4-methoxyphenyl)-3-(hydroxymethyl)-1-(3,4,5-trimethoxyphenyl)azetidin-2-one], the IC50 in test [1], in test [2] and in test [3] was above 20 µM throughout.
With `COc1ccc([C@@H]2[C@H](CO)C(=O)N2c2cc(OC)c(OC)c(OC)c2)cc1O` [Compound 100, (3R,4S)-4-(3-hydroxy-4-methoxyphenyl)-3-(hydroxymethyl)-1-(3,4,5-trimethoxyphenyl)azetidin-2-one], the IC50 in test [1] was determined as 0.364 µM; in test [2], 0.332 µM; in test [3], 0.383 µM.
